Assay results published in patent publication US5958881A, “Composition containing VIP for injection and a method of enhancing visualization of tissues during medical procedures” (priority 1992, dated 1999).
Read-outs that look alike come from different tables or passages of the source.

Experiments:
[1] = Procedure: During the period of observation, vital signs (blood pressure and pulse) and symptoms were continuously recorded. The protocol was such that if the blood pressure dropped by more than 20 mm Hg systolic or diastolic or the pulse increased by more than 30 beats per minute for 2 minutes, intravenous saline was to be administered and the study terminated.
[2] = system: gastrointestinal motility; settings: controlled studies; cited from earlier work
[3] = in vivo; cited from earlier work
gastroduodenal motility = settings: cited from earlier work
antroduodenal activity = settings: 1 mg IV followed by 2 mg IV over 2 hours; cited from earlier work
[4] = dose dependent; cited from earlier work
opossum duodenum = settings: cited from earlier work

Question: What does the source list for `CC[C@H](C)[C@H](NC(=O)[C@H](CO)NC(=O)[C@H](CC(N)=O)NC(=O)[C@H](CC(C)C)NC(=O)[C@H](Cc1ccc(O)cc1)NC(=O)[C@H](CCCCN)NC(=O)[C@H](CCCCN)NC(=O)[C@@H](NC(=O)[C@H](C)NC(=O)[C@H](CCSC)NC(=O)[C@H](CCC(N)=O)NC(=O)[C@H](CCCCN)NC(=O)[C@H](CCCN=C(N)N)NC(=O)[C@H](CC(C)C)NC(=O)[C@H](CCCN=C(N)N)NC(=O)[C@@H](NC(=O)[C@H](Cc1ccc(O)cc1)NC(=O)[C@H](CC(N)=O)NC(=O)[C@H](CC(=O)O)NC(=O)[C@@H](NC(=O)[C@H](Cc1ccccc1)NC(=O)[C@@H](NC(=O)[C@H](C)NC(=O)[C@H](CC(=O)O)NC(=O)[C@H](CO)NC(=O)[C@@H](N)Cc1c[nH]cn1)C(C)C)[C@@H](C)O)[C@@H](C)O)C(C)C)C(=O)N[C@@H](CC(C)C)C(=O)N[C@@H](CC(N)=O)C(N)=O` [VIP, vasoactive intestinal peptide]?
Answer: need to terminate the study ([1]; criterion: blood pressure drop >20 mm Hg or pulse increase >30 beats per minute for 2 minutes): none of the three patients; effects on blood pressure and pulse ([1]; first patient, higher dose level (20 ng/kg)): not seen; effect on blood pressure and pulse ([1]; first patient, initial dose of 5 ng VIP per kg): slight decrease in systolic pressure and increase in pulse; effect on blood pressure ([1]; gastroparetic dose): without a significant effect; side effects of nausea and vomiting ([1]; method of the invention): free of the negative side effects of nausea and vomiting; change in blood pressure or pulse ([1]; second patient, any of the dosages tested (5, 20, 100 ng/kg)): no significant change; change in blood pressure or pulse ([1]; third patient, any dose of VIP administered): no significant change; adverse reactions such as nausea or vomiting ([1]; three patients, 5-300 ng/kg IV): None of the three patients

Question: Which “improvement in patient tolerance or facilitation of endoscopy” value [2] does the source give for `CN1[C@@H]2CC[C@H]1C[C@@H](OC(=O)C(CO)c1ccccc1)C2` (some centres unmarked) [atropine] here?
Answer: The value was “failed to demonstrate any beneficial effects”.

Question: And the cardiac arrhythmias [3]?
Answer: Its cardiac arrhythmias is “increased risk”.

Question: And the undesirable side effects [3]?
Answer: The undesirable side effects was “blurred vision, headache, and urinary retention”.

Question: Which gastroduodenal motility (gastroduodenal motility; dose-dependent) does the source give for glucagon here?
Answer: Its gastroduodenal motility is “variable reduction”.

Question: And the minimally effective dose (gastroduodenal motility; reduction in gastroduodenal motility)?
Answer: Its minimally effective dose is 0.5 mg.

Question: What about the “cycle length and time between contractile activity in the duodenum” value (antroduodenal activity) of the same molecule?
Answer: The value was “significantly increased”.

Question: And the mean pressure period (antroduodenal activity)?
Answer: The mean pressure period was “decreased”.

Question: What about the “dose at which nausea and vomiting can appear” value [4] of the same molecule?
Answer: Its value is 1 mg.

Question: And the “effect on duodenum muscle” value (opossum duodenum)?
Answer: The value was “stimulated relaxation”.
